{
  "source": "patent US20250195521A1",
  "about": "(Revolution Medicines, Inc., priority 2020, published 2025)",
  "key": {"[1]": {"test_system": "PAN02 tumors (SHP2 G503V)", "test": "PAN02 syngeneic tumor model (Example 2)", "assay_type": "in vivo, mouse", "settings": "PAN02, C57/B6 mice; RMC-4550 40 mg/kg every 2 days oral"}, "[2]": {"test_system": "KLN205 cells (SHP2 G503V)", "test": "pERK AlphaLISA in KLN205 cells", "assay_type": "cell-based, mouse", "settings": "KLN205, up to highest test concentration of 10 μM", "text": "(§1) In this example, two mouse tumor cell lines, KLN205 (lung squamous cell carcinoma) and PAN02 (pancreatic cancer), were characterized.\n(§2) See FIGS. 5A through 5D, which are graphs depicting the pERK AlphaLISA® assay."}, "[3]": {"test_system": "Capan-2 tumors (KRAS G12V/wt)", "test": "Capan-2 KRAS G12V/wt xenograft efficacy", "assay_type": "in vivo, mouse", "settings": "RMC-4550 20 mg/kg po every other day; Compound A 100 mg/kg po bid; Day 40", "procedure": "Capan-2 cells were implanted in 50% Matrigel. Animals were randomized and treatment was initiated at average tumor volume of ˜180 mm3. […] Ns=no significance; *** p<0.001 by one-way ANOVA.\nOnce tumors reached an average size of ˜180 mm3, mice were randomized to treatment groups to start the administration of test articles or vehicle. […] Body weight and tumor volume (using calipers) was measured twice weekly until study endpoints."}, "[4]": {"test_system": "KLN205 cells (SHP2 G503V)", "test": "CellTiter-Glo viability in KLN205 cells", "assay_type": "cell-based, mouse", "settings": "KLN205, up to highest test concentration of 10 μM", "text": "as §1, §2"}, "[5]": {"test_system": "SHP2 variants expressed in T-REx-293 (HEK-293) cells", "test": "pERK AlphaLISA in isogenic T-REx-293-SHP2 cells, EGF stimulated", "assay_type": "cell-based", "settings": "SHP2 G503V", "procedure": "Assay data was plotted and EC50 values were determined using four-parameter concentration-response model in GraphPad Prism 7. Data provided are mean+/−standard deviation of duplicate values from representative experiments."}, "[6]": {"test_system": "KLN205 tumors (SHP2 G503V)", "test": "KLN205 syngeneic tumor model (Example 2)", "assay_type": "in vivo, mouse", "settings": "KLN205, DBA/2 mice; RMC-4550 30 mg/kg daily oral"}, "[7]": {"test_system": "LN229.E76K tumors (PTPN11 E76K)", "test": "LN229.E76K glioblastoma xenograft (Example 8)", "assay_type": "in vivo, mouse", "settings": "PO daily; Compound SOS1-(C) 50 mg/kg, RMC-4550 30 mg/kg, cobimetinib […]", "procedure": "6-7 week athymic nude mice were implanted with LN229.E76K in 50% matirgel (10×10^6 cells/mouse) subcutaneously in the flank. Once tumors reached an average size of 200 mm^3, mice were randomized into treatment groups to start the administration of test articles or control. All treatments were administered daily by oral gavage. Body weight and tumor volume (using calipers) was measured twice weekly until study endpoint."}, "PAN02 cells (SHP2 G503V) [8]": {"test_system": "PAN02 cells (SHP2 G503V)", "test": "CellTiter-Glo viability in PAN02 cells", "assay_type": "cell-based, mouse", "settings": "PAN02, up to highest test concentration of 10 μM", "text": "as §1, §2"}, "PAN02 cells (SHP2 G503V) [9]": {"test_system": "PAN02 cells (SHP2 G503V)", "test": "pERK AlphaLISA in PAN02 cells", "assay_type": "cell-based, mouse", "settings": "PAN02, up to highest test concentration of 10 μM", "text": "as §1, §2"}},
  "data": [
    {"smiles": "Cc1nc(N2CCC3(CC2)CO[C@@H](C)[C@H]3N)c(CO)nc1-c1cccc(Cl)c1Cl", "note": "[RMC-4550]", "values": [
      {"measurement": "tumor growth inhibition", "setting": "[1]", "value": "less than 50%"},
      {"measurement": "inhibition of pERK", "setting": "[2]", "value": "low or moderate inhibition"},
      {"measurement": "TGI", "setting": "[3]", "value": 39, "unit": "%"},
      {"measurement": "inhibition of cell growth", "setting": "[4]", "value": "low or moderate inhibition"},
      {"measurement": "IC50", "setting": "[5]", "value": "> 30", "unit": "µM"},
      {"measurement": "tumor growth inhibition", "setting": "[6]", "value": "less than 50%"},
      {"measurement": "tumor growth inhibition (TGI)", "setting": "[7]", "value": 7, "unit": "%"},
      {"measurement": "inhibition of cell growth", "setting": "PAN02 cells (SHP2 G503V) [8]", "value": "low or moderate inhibition"},
      {"measurement": "inhibition of pERK", "setting": "PAN02 cells (SHP2 G503V) [9]", "value": "low or moderate inhibition"}
    ]}
  ]
}
